Results on 1 molecule are retold here after patent publication US20150190369A1, “QUERCETIN-3-GLUCOSIDE AND USES THEREOF” (priority 2012, published 2015).

Entries after “also recorded” stand apart in the source; their conditions may differ. Where two headings read alike, the source gives them in different places.

One series relates to proPCSK9. The series is described as follows: Immunoblotting for PCSK9/proPCSK9 in MIN6 β-cells. The series is classed as cell-based, mouse. The note with it: MIN6, 24 h, 16 μM Q3G versus untreated. The procedure:
(§1) The corresponding photographs of the immunoblotting results are also shown. MIN6 cells were incubated for 24 h in the presence of 16 μM Q3G. Cell lysates were analyzed by semi-quantitative immunoblotting using different antibodies successively.
(§2) Mouse insulinoma MIN6 cells were cultured in a 5% CO2-95% air atmosphere at 37° C. in DMEM medium containing 10% heat-inactivated fetal bovine serum, 1 mM Na-pyruvate, 2 mM L-glutamine, 25 mM D-glucose, and 28 μM β-mercaptoethanol. Q3G at a specific final concentration was supplemented to the culture medium and incubation was conducted for a selected length of time. Media were collected, spun at 600 g to sediment suspended cells, supplemented with 0.5 volumes of 3×RIPA-PIC (1×: 50 mM Tris-HCl, pH 8, 150 mM NaCl, 1% NP-40, 0.5% Na-deoxycholate and 0.1% SDS and PIC). Cells were lysed in 1×RIPA-PIC for immuno-blotting, or in RNA extraction buffer for qRT-PCR.
(§3) Cell lysates were fractionated by SDS-PAGE and electrophoretically transferred onto a polyvinylidene fluoride membrane. […] The signal was captured on X-ray film and immunoreactive bands analyzed by densitometry on a Syngene's ChemiGenius^2XE Bio Imaging System (Cambridge, Mass.) within the dynamic range of the instrument. […]
(A western blot detects proteins with antibodies after separation by electrophoresis.)

The next series has as its target recombinant human PCSK9 (Homo sapiens, UniProt Q8NBP7). The series is described as follows: UV spectrometry of PCSK9-Q3G interaction. The series is classed as binding. The note with it: 5 μM PCSK9 with equimolar Q3G in PBS, 5-min incubation. The procedure:
The data discussed herein indicate that chronic exposure of Huh7 cells to Q3G reduces PCSK9 accumulation in the culture medium by delaying its transit through the secretory pathway. The delay appears not to be caused by impaired proteolytic processing of its precursor. Quercetin is known to bind, covalently in some cases, to selected cellular proteins. […] Purified recombinant PCSK9 (5μM) was mixed with or without equimolar amount of Q3G in phosphate-buffered saline. After a 5-min incubation, the UV spectrum of the mix was taken. […] It is believed that such a binding may alter PCSK9 conformation and/or retard its navigation through the secretory pathway, and, ultimately, diminish its LDL-degrading activity.

The test system of another series is PCSK9. The series is described as follows: ELISA for secreted PCSK9 in conditioned media of Huh7 cells. To be noted: Huh7, 24 h. It is filed as cell-based, human. Background: ELISA stands for enzyme-linked immunosorbent assay.
The test system of a further series is ABCA1. The series is described as follows: Immunoblotting for ABCA1 in MIN6 β-cells. The series is classed as cell-based, mouse. To be noted: MIN6, Q3G-treated. As for the experimental part:
as §1, §2, §3

The conditions of series [1]: dogs, meal supplement; cited from earlier work.
The conditions of series [2]: pigs, meal supplement; cited from earlier work.
In another series the test system is MIN6 β-cells. The series is described as follows: GSIS assay (glucose-stimulated insulin secretion, insulin ELISA). The series is classed as cell-based, mouse. To be noted: MIN6, stimulation with 18 mM glucose, 30 min. The procedure: The assays for PCSK9 and insulin were conducted as prescribed by kit manufacturers, using a Thermo Scientific plate reader. For example, PCSK9 levels in conditioned media were measured using the human PCSK9 ELISA kit from Circulex, as specified the manufacturer. The assay was a sandwich immunoassay using two antibodies (A and B) recognizing different PCSK9 epitopes. Briefly, aliquot of diluted media were overlaid on wells coated with anti-PCSK9 antibody A. After 1-h incubation, the wells were washed, overlaid with a solution of HRP-conjugated anti-PCSK9 antibody B, and incubated for 1 h. They were washed again, and overlaid with a solution of tetra-methylbenzidine as a chromogenic substrate for HRP. After 15 min, the reaction was stopped with […] and the absorbance of the reaction mixtures measured by spectrophotometry at 450 nm. All the steps were performed at room temperature. Standards consisted of recombinant human PCSK9.
Cells were seeded and grown to 80% confluence. Prior to GSIS assay, fresh medium containing 3 mM Glucose and 10% FBS medium (low-glucose medium or LGM) without or with Q3G was substituted and incubation resumed for 6 h to adapt the cells to low glucose. Fresh LGM without or with Q3G was substituted and supplemented or not with glucose to the final concentration of 18 mM. […]

In another series the test system is ABCG1 mRNA. The series is described as follows: qRT-PCR for ABCG1 mRNA in MIN6 β-cells. To be noted: MIN6, 24 h. It is filed as cell-based, mouse. The procedure:
as §2
(§4) For the mouse studies, the levels of specific mRNAs were quantified in a PCR-based fluorogenic assay using the Taqman technology (Holland et al., 1991). Briefly, total RNA was extracted using the RNeasy extraction kit and reverse-transcribed into cDNA using random hexameric primers and the Superscript II RNase H-Reverse Transcriptase. […] Standard curves were established using varying amounts of pre-quantified amplicons of each transcript. […]
(§5) MIN6 β-cells were incubated for 24 h in the presence of different concentrations of Q3G. Total RNA was extracted and analyzed by qRT-PCR for the levels of mRNA for PCSK9, LDLR, ABCA1 and ABCG1.
Background: Real-time PCR tracks product formation cycle by cycle.

The test system of another series is ABCA1 mRNA. The series is described as follows: qRT-PCR for ABCA1 mRNA in MIN6 β-cells. The note with it: MIN6, 24 h. It is filed as cell-based, mouse. The procedure:
as §2, §4, §5

Another series deals with ABCG1. Description: Immunoblotting for ABCG1 in MIN6 β-cells. It is filed as cell-based, mouse. The note with it: MIN6, Q3G-treated. The procedure:
as §1, §2, §3

Sequence of recombinant human PCSK9 (Q8NBP7 153-692): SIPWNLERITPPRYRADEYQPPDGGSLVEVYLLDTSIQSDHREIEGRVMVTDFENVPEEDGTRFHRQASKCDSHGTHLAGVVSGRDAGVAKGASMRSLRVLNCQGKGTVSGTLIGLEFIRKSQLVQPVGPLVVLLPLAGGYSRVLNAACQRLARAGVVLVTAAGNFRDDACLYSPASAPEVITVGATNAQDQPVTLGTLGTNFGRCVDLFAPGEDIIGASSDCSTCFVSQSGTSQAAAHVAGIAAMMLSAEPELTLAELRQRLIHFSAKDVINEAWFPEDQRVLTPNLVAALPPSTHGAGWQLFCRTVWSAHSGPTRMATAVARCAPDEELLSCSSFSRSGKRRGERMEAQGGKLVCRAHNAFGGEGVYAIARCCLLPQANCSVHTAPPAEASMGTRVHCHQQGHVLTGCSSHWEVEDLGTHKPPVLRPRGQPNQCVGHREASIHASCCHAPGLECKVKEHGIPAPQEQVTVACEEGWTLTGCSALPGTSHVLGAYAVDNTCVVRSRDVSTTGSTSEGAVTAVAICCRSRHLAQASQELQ

For `O=c1c(O[C@@H]2O[C@H](CO)[C@@H](O)[C@H](O)[C@H]2O)c(-c2ccc(O)c(O)c2)oc2cc(O)cc(O)c12` [Q3G, quercetin-3-O-β-D-glucoside], the “intracellular content of proPCSK9” value in the series on proPCSK9 is on record as “higher”. Further, on recombinant human PCSK9, the “interaction with PCSK9 (changes of optical density and spectral profile)” value is recorded as “suggest interaction”. Moreover, the “level of PCSK9 in spent media” value in the series on PCSK9 (co-treatment 5 μM Q3G with simvastatin 0.2 and 1 μM, versus simvastatin alone) is “reducing”. For the same molecule, the “decrease of PCSK9 in conditioned media” value in the series with PCSK9 (highest Q3G concentration tested (0 to 10 μM)) is 35%. Further, the “relative amount of ABCA1 protein compared with mRNA” value with ABCA1 is “in concordance with the relative amounts of mRNA”. The “quercetin bioavailability versus quercetin aglycone and rutin” value in series [1] and in series [2] was “significantly greater” in each case. Moreover, the “glucose-stimulated insulin secretion, treated versus untreated cells” value in the series with MIN6 β-cells is “comparable; also recorded: without affecting”. For the same molecule, the “effect on ABCG1 mRNA levels” value in the series with ABCG1 mRNA (Q3G 8 mM and above) is “reducing”. Moreover, the “increase of ABCG1 mRNA levels” value in the series on ABCG1 mRNA (Q3G up to 4 mM) is on record as “about 50%”. Also, the “effect on ABCA1 mRNA levels” value with ABCA1 mRNA (Q3G 8 mM and above) is reported as “reducing”. In addition, in the series on ABCA1 mRNA (Q3G up to 4 mM), the “increase of ABCA1 mRNA levels” value was “about 50%”. Moreover, in the series on ABCG1, the “relative amount of ABCG1 protein compared with mRNA” value is listed as “in concordance with the relative amounts of mRNA”.
